Results published in ChEMBL document CHEMBL4257559, “Protective effects of astragaloside IV against hypoxic pulmonary hypertension” (Medchemcomm, 2018).
The source made the active and inactive calls. The calls are words filed in the database; no cut-off is given here.

Key:
Rattus norvegicus [1] = test: Protective effect against chronic hypoxia-induced pulmonary hypertension in ip dosed Sprague-Dawley rat assessed as decrease in serum TNF-alpha levels administered every other day at 10 mins prior to induction of hypoxia and measured after 2 weeks by ELISA; format: functional, organism-based
[2] = Cmax in chronic hypoxia-induced pulmonary hypertension model of Sprague-Dawley rat at 50 mg/kg, ip after 30 to 600 mins by HPLC analysis; format: ADME, organism-based; set-up: dose 50 mg/kg, route intraperitoneal; conditions: in vivo
Rattus norvegicus [3] = test: Protective effect against chronic hypoxia-induced pulmonary hypertension in Sprague-Dawley rat assessed as decrease in mean pulmonary arterial pressure at 50 mg/kg, ip administered every other day at 10 mins prior to induction of hypoxia and measured after 2 weeks; format: functional, organism-based
Rattus norvegicus [4] = test: Protective effect against chronic hypoxia-induced pulmonary hypertension in Sprague-Dawley rat assessed as decrease in serum endothelin levels at 50 mg/kg, ip administered every other day at 10 mins prior to induction of hypoxia and measured after 2 weeks by ELISA; format: functional, organism-based
Pulmonary artery [5] = test: Protective effect against chronic hypoxia-induced pulmonary hypertension in Sprague-Dawley rat pulmonary arterial ring assessed as increase in relaxation of pulmonary artery ring at 50 uM treated after phenylephrine-induced vasoconstriction measured at 10 mins relative to control; format: functional; set-up: scale not given: the % may be the effect or the level left
Rattus norvegicus [6] = test: (§1) Protective effect against chronic hypoxia-induced pulmonary hypertension in Sprague-Dawley rat assessed as decrease in index of right ventricular hypertrophy by measuring ratio of right ventricular/(left ventricular + septum) weight at 10 mg/kg, ip administered every other day at 10 mins prior to induction of hypoxia and measured after 2 weeks; format: functional, organism-based
[7] = Cmax in chronic hypoxia-induced pulmonary hypertension model of Sprague-Dawley rat at 10 mg/kg, ip after 30 to 600 mins by HPLC analysis; format: ADME, organism-based; set-up: dose 10 mg/kg, route intraperitoneal; conditions: in vivo
Pulmonary artery [8] = test: Protective effect against chronic hypoxia-induced pulmonary hypertension in Sprague-Dawley rat pulmonary arterial ring assessed as increase in relaxation of pulmonary artery ring at 10 uM treated after phenylephrine-induced vasoconstriction measured at 10 mins relative to control; format: functional; set-up: scale not given: the % may be the effect or the level left
[9] = Tmax in chronic hypoxia-induced pulmonary hypertension model of Sprague-Dawley rat at 10 mg/kg, ip after 30 to 600 mins by HPLC analysis; format: ADME, organism-based; conditions: in vivo
Pulmonary artery [10] = test: Protective effect against chronic hypoxia-induced pulmonary hypertension in Sprague-Dawley rat pulmonary arterial ring assessed as increase in relaxation of pulmonary artery ring at 50 uM treated after phenylephrine-induced vasoconstriction measured at 1 min; format: functional, tissue-based
[11] = Tmax in chronic hypoxia-induced pulmonary hypertension model of Sprague-Dawley rat at 50 mg/kg, ip after 30 to 600 mins by HPLC analysis; format: ADME, organism-based; conditions: in vivo
Rattus norvegicus [12] = test: as §1, with “weight at 50 mg/kg, ip” for “weight at 10 mg/kg, ip”; format: functional, organism-based
Rattus norvegicus [13] = test: Protective effect against chronic hypoxia-induced pulmonary hypertension in Sprague-Dawley rat assessed as decrease in mean pulmonary arterial pressure at 10 mg/kg, ip administered every other day at 10 mins prior to induction of hypoxia and measured after 2 weeks; format: functional, organism-based
Rattus norvegicus [14] = species: Rattus norvegicus; test: Inhibition of hypoxia-induced proliferation of Sprague-Dawley rat PASMC at 50 uM preincubated for 10 mins followed by hypoxia induction and measured after 24 hrs by CCK8 assay; format: functional
Rattus norvegicus [15] = test: Protective effect against chronic hypoxia-induced pulmonary hypertension in Sprague-Dawley rat assessed as decrease in right ventricular pressure at 50 mg/kg, ip administered every other day at 10 mins prior to induction of hypoxia and measured after 2 weeks; format: functional, organism-based
Rattus norvegicus [16] = test: Protective effect against chronic hypoxia-induced pulmonary hypertension in Sprague-Dawley rat assessed as decrease in serum endothelin levels at 10 mg/kg, ip administered every other day at 10 mins prior to induction of hypoxia and measured after 2 weeks by ELISA; format: functional, organism-based
Rattus norvegicus [17] = test: Protective effect against chronic hypoxia-induced pulmonary hypertension in ip dosed Sprague-Dawley rat assessed as decrease in serum IL-6 levels administered every other day at 10 mins prior to induction of hypoxia and measured after 2 weeks by ELISA; format: functional, organism-based
Pulmonary artery [18] = test: Protective effect against chronic hypoxia-induced pulmonary hypertension in Sprague-Dawley rat pulmonary arterial ring assessed as increase in relaxation of pulmonary artery ring at 10 uM treated after phenylephrine-induced vasoconstriction measured at 1 min; format: functional, tissue-based
Rattus norvegicus [19] = test: Protective effect against chronic hypoxia-induced pulmonary hypertension in Sprague-Dawley rat assessed as decrease in right ventricular pressure at 10 mg/kg, ip administered every other day at 10 mins prior to induction of hypoxia and measured after 2 weeks; format: functional, organism-based
Rattus norvegicus [20] = species: Rattus norvegicus; test: Inhibition of hypoxia-induced proliferation of Sprague-Dawley rat PASMC at 10 uM preincubated for 10 mins followed by hypoxia induction and measured after 24 hrs by CCK8 assay; format: functional
Rattus norvegicus [21] = test: Protective effect against chronic hypoxia-induced pulmonary hypertension in Sprague-Dawley rat assessed as decrease in serum angiotensin-2 levels at 50 mg/kg, ip administered every other day at 10 mins prior to induction of hypoxia and measured after 2 weeks by ELISA; format: functional, organism-based
Rattus norvegicus [22] = test: Protective effect against chronic hypoxia-induced pulmonary hypertension in Sprague-Dawley rat assessed as decrease in serum angiotensin-2 levels at 10 mg/kg, ip administered every other day at 10 mins prior to induction of hypoxia and measured after 2 weeks by ELISA; format: functional, organism-based

Compound: CC(C)(O)[C@@H]1CC[C@](C)([C@H]2[C@@H](O)C[C@@]3(C)[C@@H]4C[C@H](O[C@@H]5O[C@H](CO)[C@@H](O)[C@H](O)[C@H]5O)[C@H]5C(C)(C)[C@@H](O[C@@H]6OC[C@@H](O)[C@H](O)[C@H]6O)CC[C@@]56C[C@@]46CC[C@]23C)O1
- Activity (Rattus norvegicus [1]): Dose-dependent effect
- Cmax [2]: 25200 ng/mL
- Activity (Rattus norvegicus [3]): inactive
- Activity (Rattus norvegicus [4]): Active
- Activity (Pulmonary artery [5]): 21.194%
- Activity (Rattus norvegicus [6]): inactive
- Cmax [7]: 7270 ng/mL
- Activity (Pulmonary artery [8]): 9.42%
- Tmax [9]: 1 h
- Activity (Pulmonary artery [10]): Active
- Tmax [11]: 1 h
- Activity (Rattus norvegicus [12]): inactive
- Activity (Rattus norvegicus [13]): inactive
- inhibition (Rattus norvegicus [14]): Active
- Activity (Rattus norvegicus [15]): inactive
- Activity (Rattus norvegicus [16]): inactive
- Activity (Rattus norvegicus [17]): Dose-dependent effect
- Activity (Pulmonary artery [18]): Active
- Activity (Rattus norvegicus [19]): inactive
- inhibition (Rattus norvegicus [20]): inactive
- Activity (Rattus norvegicus [21]): Active
- Activity (Rattus norvegicus [22]): inactive
